From PubChem BioAssay (NCI)
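1) Cells in 96-well plates. 2) Compound, 48 h, 5 concentrations. 3) Linear interpolation between surrounding doses. 4) Unreached endpoint = highest concentration. GI50 is the concentration that inhibits growth by half. Definition used: TGI = concentration required for complete inhibition of growth.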

Columns and labels:
Assay in all cases: NCI anticancer screen, dose series, 48 h
LOX IMVI melanoma = test system: LOX IMVI melanoma
SNB-19 CNS = test system: SNB-19 CNS
RXF 393 renal = test system: RXF 393 renal
HOP-92 NSCLC = test system: HOP-92 NSCLC
UACC-62 melanoma = test system: UACC-62 melanoma
COLO 205 colon = test system: COLO 205 colon
CCRF-CEM leukemia = test system: CCRF-CEM leukemia
SF-295 CNS = test system: SF-295 CNS
MOLT-4 leukemia = test system: MOLT-4 leukemia
EKVX NSCLC = test system: EKVX NSCLC

Row | Structure (SMILES) | GI50 (LOX IMVI melanoma) [µM] | TGI (LOX IMVI melanoma) [µM] | GI50 (SNB-19 CNS) [µM] | TGI (SNB-19 CNS) [µM] | GI50 (RXF 393 renal) [nM] | TGI (RXF 393 renal) [µM] | GI50 (HOP-92 NSCLC) [µM] | TGI (HOP-92 NSCLC) [µM] | GI50 (UACC-62 melanoma) [nM] | TGI (UACC-62 melanoma) [µM] | GI50 (COLO 205 colon) [µM] | TGI (COLO 205 colon) [µM] | GI50 (CCRF-CEM leukemia) [µM] | TGI (CCRF-CEM leukemia) [µM] | GI50 (SF-295 CNS) [µM] | TGI (SF-295 CNS) [µM] | GI50 (MOLT-4 leukemia) [µM] | TGI (MOLT-4 leukemia) [µM] | GI50 (EKVX NSCLC) [nM] | TGI (EKVX NSCLC) [µM]
1 | CCc1n(Cc2ccc3ccccc3c2)cc[n+]1Cc1ccc2ccccc2c1 | 0.649 | 1.96 | 0.492 | 1.82 | 1150 | 2.63 | 0.338 | 1.77 | 507 | 2 | 0.376 | 1.73 | 0.922 | 4.34 | 1.43 | 4 | 0.829 | 2.99 | 766 | 5.55
2 | CCOC(=O)c1nc2sc(Cl)cn2c1/C=N/N=C(N)N | 25.3 | > 54.6 | 30 | > 100 | 18800 | > 70.2 | 20 | 40.8 | 17600 | 34.5 | 15.1 | 37.9 | 25.2 | > 64.2 | 27.7 | > 52.3 | 22.8 | > 100 | 26100 | 61.6
3 | O=c1oc2cc(O)ccc2cc1-c1nc2ccccc2o1 |  | > 100 |  | > 100 |  | 35.5 |  | 78.3 |  | > 100 |  | 80.3 |  | > 100 |  | > 100 |  | > 100 |  | > 100
4 | CCCCCCCCCCCCNC(=S)OCCCC |  | 35.8 |  | > 100 |  | > 100 |  | > 100 |  | > 100 |  |  |  | > 100 |  | > 100 |  | 52.4 |  | > 100
5 | COc1c(O)ccc(/C=N/NC(=S)NCOCCOC(C)=O)c1OC |  | > 100 |  | > 100 |  | > 100 |  | > 100 |  | > 100 |  | > 100 |  | > 100 |  | > 100 |  |  |  | > 100
6 | Cc1nc2sc(C(=O)Nc3cccc4c3OCCO4)c(N)c2cc1C(C)O (stereo unspecified) | 5.26 | > 100 | 6.8 | > 100 | 2920 | > 100 | 5.52 | > 100 | 2970 | > 100 | 4.27 | > 100 | 3.5 | > 100 | 5.04 | > 100 | 4.97 | > 100 | > 100000 | > 100
7 | C=CC(=O)N1CCN(c2nc(OC[C@@H]3CCCN3C)nc3c(F)c(-c4nc(N)cc(C)c4C(F)(F)F)c(Cl)cc23)[C@@H](C)C1 | 1.6 | 3.02 | 3.44 | 12.8 | 1070 | 2.5 | 1.75 | 3.71 |  |  | 1.86 | 3.5 | 3.08 | > 100 | 4.74 | 16.9 | 1.91 | 7.63 | 1980 | 4.8
8 | CC1Nc2ccccc2NC1C=C(C#N)C#N (stereo unspecified) |  | 25.5 |  | 36.3 |  | 31.3 |  | 28.4 |  | 32.6 |  | 34.4 |  | 7.97 |  | 28.9 |  | 24.6 |  | 37.1
